Measurements reported in article PMC10254306, “Piplartine-Inspired 3,4,5-Trimethoxycinnamates: Trypanocidal, Mechanism of Action, and In Silico Evaluation” (Molecules, 2023).
Values joined by “and” are separate entries in the source; they are usually repeats but may differ in a detail not shown here. Equal values may be shown once.

Assays:
[1] = tested on: LLC-MK2 cells; assay: In vitro cytotoxicity, MTT assay; format: cell-based, Rhesus monkey
Method: (§1) The compounds were considered selective for the parasite when SI ≥ 10 [21]. The results are expressed in Table 2.
(§2) For the cytotoxicity analysis, the (3-[4,5-dimethylthiazol-2-yl]-2,5 diphenyl tetrazolium bromide) (MTT) assay was used, in which the LLC-MK2 cells were cultured in Dulbecco’s Modified Eagle Medium (DMEM), then exposed to the piplartine analogues at different concentrations (25–200 μg/mL) and incubated for 24 h at 37 °C. Then MTT was added, and the cells were incubated for 4 h, after which 10% sodium dodecyl sulfate was added. […] To calculate the relative cell viability, cells treated only with sterile phosphate-buffered saline were used as a negative control. The experiments were conducted in triplicates.

[2] = In vitro cytotoxicity, MTT assay; format: cell-based, Rhesus monkey; settings: Rhesus monkey, LLC-MK2 renal epithelial cells; MTT, 24 h; read-out: LLCK-MK2 CC50
Method: as §1, §2

[3] = tested on: epimastigote forms of T. cruzi, Y strain; assay: Trypanocidal activity on epimastigote forms (growth inhibition, Neubauer chamber count); format: cell-based, Trypanosoma cruzi
Method: (§3) Initially, the prepared esters were submitted to in vitro tests using the microdilution technique in 96-well plates to evaluate the trypanocidal activity against the epimastigote evolutionary form at different concentrations (200–3.12 μg/mL). Then, the compounds with the best activity were tested against the trypomastigote form of T. cruzi. In both assays, IC50 values were calculated; a compound is considered to have trypanocidal activity when IC50 <40 μM [21]. The results are expressed in Table 1.
Initially, epimastigotes were cultured and distributed in 96-well plates at a density of 10^6 cells/mL in liver infusion tryptose medium supplemented with 10% fetal bovine serum (FBS) and 1% antibiotic. Then, the cells were treated with piplartine analogues at different concentrations and incubated at 28 °C for 24 h. To quantify the growth inhibition of the parasites, a Neubauer chamber was used, and the IC50 was defined.

[4] = tested on: epimastigote cells of T. cruzi; assay: Cytoplasmic reactive oxygen species, DCFH-DA flow cytometry; format: cell-based, Trypanosoma cruzi; settings: 157 and 314 µM, 24 h
Method: To elucidate the mechanism of action of 11, the increase in the concentration of ROS inside epimastigote cells of T. cruzi was evaluated through fluorescent techniques using 2′,7′–dichlorofluorescein diacetate (DCFH-DA). The results are illustrated in Figure 2 and Figure 3.
The DCFH-DA assay was used to evaluate the increase in ROS concentration in the cytoplasm of epimastigote cells treated with 11. Initially, 10^6 epimastigote cells/mL were added to 24-well plates in the presence of 11 (157 μM and 314 µM). After 3 h, 10 µL of a solution of DCFH-DA (20 µM in DMSO) was added. After 24 h, the cells were centrifuged (2800 RPM for 7 min), washed, and resuspended in 500 µL of phosphate buffered saline for flow cytometer analysis. Thus, the level of labeling in each group was analyzed by the geometric mean of the fluorescence intensity, and the results were expressed as relative fluorescence intensity according to the following formula (Equation (1)): (1) Relative fluorescence=mTest/mControl mTEST = geometric mean of the interest group; mCONTROL = geometric mean of the control group.

[5] = tested on: epimastigote forms of T. cruzi; assay: Cell death profile, 7-AAD / annexin V-PE labeling; format: cell-based, Trypanosoma cruzi; settings: 157 and 314 µM, 24 h
Method: Epimastigote forms were used to analyze the cell death profile through labeling with AxPE and 7-AAD. Initially, the cells were divided into four cell populations: viable cells—with a low level of labeling (7AAD−/AxPE−); necrotic cells—labeled with 7-AAD (7AAD+/AxPE−); apoptotic cells—labeled with annexin V-PE (7AAD−/AxPE+); and cells in late apoptosis—doubly labeled (7AAD+/AxPE+).
The cells were treated with 11 for 24 h at concentrations of 157 and 314 µM.
The epimastigote forms of T. cruzi were cultivated at a density of 10^6 cells/mL in the presence of 11 (157 and 314 µM) for 24 h in a stove. Then, the cells were transferred to cytometry tubes, centrifuged at 4000 RPM for 5 min and washed twice with phosphate-buffered saline and binding buffer (pH 7.4; a compound of HEPES solution 10 mM; NaCl 140 mM; and CaCl2 2.5 mm). After the last centrifugation, the pellet was resuspended in 100 µL binding buffer, 5 µL 7-AAD (0.5 mg/mL), and 5 µL Ax/PE. The procedure was performed using a commercial kit (Annexin V PE Apoptosis Detection Kit I, BD Biosciences) and following the manufacturer’s guidelines. After 15 min of incubation in the dark, 400 µL of binding buffer was added to each tube, and the cells were analyzed on the FACSCalibur (BD Biosciences). For each tube, a minimum of 10^4 cells were analyzed to quantify the percentage of unlabeled cells and were either singly or double labeled with 7-AAD and Ax/PE. For this, an argon laser (488 nm) was used to excite the fluorochromes. Ax/PE-labeled cells were read by the FL2 detector (563 to 606 nm, yellow fluorescence), while 7-AAD-labeled cells were read at 615 to 645 nm wavelength (red fluorescence, FL3 detector).

[6] = tested on: epimastigote forms of T. cruzi; assay: Scanning electron microscopy of morphological changes; format: cell-based, Trypanosoma cruzi; settings: 24 h of treatment, 157 µM
Method: In addition, scanning electron microscopy was used to analyze possible morphological alterations of epimastigote forms treated with compound 11. […] Similar results were obtained by treating epimastigote forms with pentyl p-coumarate.
To evaluate the changes induced by 11 in the ultrastructure of T. cruzi, the epimastigote forms were incubated with them for 24 h. After this period, the samples were centrifuged (5000 rpm; 10 min), the supernatant discarded, and the pellet resuspended in glutaraldehyde solution (2.5%) and incubated for 2 h. The fixed samples were again centrifuged and exposed to increasing concentrations of ethanol (30, 50, 70, 90, and 100%) for dehydration, followed by centrifugation (5000 rpm; 5 min). Finally, the cells were transferred to the surface of circular coverslips (15 mm) and dried in a CO2 oven. The coverslips were covered with a gold layer (20 nm thick) using the QT150 ES-Quorum Metallizer and analyzed in a Quanta 450 FEG-FEI scanning electron microscope to observe changes in the three-dimensional structure of the epimastigote forms of T. cruzi.

[7] = tested on: T. cruzi epimastigotes; assay: Mitochondrial transmembrane potential, rhodamine 123 flow cytometry; format: cell-based, Trypanosoma cruzi; settings: 157 and 314 µM, 24 h
Method: In addition, the mitochondrial damage exerted by 11 on the parasite was evaluated through the mitochondrial transmembrane potential assay using the fluorescent dye rhodamine 123 (Rho 123).
Initially, 11 (157 and 314 µM) and epimastigote forms (10^6 cells/mL) were added in 24-well plates. After 24 h, the cells were centrifuged and washed with phosphate-buffered saline. Subsequently, the cells were resuspended in 100 µL of phosphate-buffered saline, and 5 µL of Rho123 solution (10 µg/mL) was added. Thus, the samples were incubated in the dark for 30 min, washed, and resuspended with phosphate-buffered saline (500 µL/tube) for analysis by flow cytometry. Results were evaluated by relative fluorescence intensity, calculated as described above.

[8] = tested on: trypomastigote forms of T. cruzi, Y strain; assay: Trypanocidal activity on trypomastigote forms (viability by counting); format: cell-based, Trypanosoma cruzi
Method: as §3
Trypomastigote forms were obtained by infecting LLC-MK2 cells with the parasite; in this way, the cells were incubated for 24 h in T-25/75 cm^2 flasks at 37 °C in an atmosphere with 5% CO2 in DMEM medium supplemented with 2% FBS and 1% antibiotic. Subsequently, the trypomastigote forms were distributed in 96-well plates treated with piplartine analogues at different concentrations (200; 100; 50; 25; 12.5; 6.25; 3.12 μg/mL) and incubated at 37 °C for 24 h. The assessment of cell viability was performed by counting, and the IC50 was defined.

[9] = tested on: epimastigote form of T. cruzi; set-up: method as in PMID 31775321; settings: cited from earlier work
[10] = tested on: trypomastigote forms of T. cruzi; set-up: method as in PMID 31775321; settings: read-out: IC50 trypomastigote form; cited from earlier work
[11] = Trypanosoma cruzi, Y strain, 24 h

Compound	toxicity on LLC-MK2 host cells (in words) ([1]; highest concentration tested (200 μg/mL))	selectivity for the parasite (SI) ([1]; parasite form not specified, conclusions)	CC50 at 24 h [2]	IC50 [3, 11]	Selectivity Index (SI) Epimastigote ([3]; ratio CC50 (LLC-MK2) / IC50 epimastigote)	relative fluorescence DCFH-DA (cytoplasmic ROS) vs control [4]	apoptotic cells (7AAD−/AxPE+) vs control [5]	cells in late apoptosis (7AAD+/AxPE+) vs control [5]	percentage of necrotic cells (7AAD+/AxPE−) vs control [5]	percentage of viable cells (7AAD−/AxPE−) vs control [5]	ultrastructural alterations by scanning electron microscopy [6]	accumulation of rhodamine 123 (mitochondrial transmembrane potential) vs control [7]	IC50 [8, 11]	Selectivity Index (SI) Trypomastigote ([8]; ratio CC50 (LLC-MK2) / IC50 trypomastigote)	IC50 [9] [µM]	IC50 [10] [µM]
COc1cc(/C=C/C(=O)OCc2ccco2)cc(OC)c1OC [Compound 11, (E)-furan-2-ylmethyl 3-(3,4,5-trimethoxyphenyl)acrylate]	did not show toxicity at the highest concentration tested	> 10	> 200 µg/mL and > 628 µM	8.98 µg/mL and 28.2 µM	>22.2	increase in relative fluorescence	increase in apoptotic cells	increase in cells in late apoptosis	increase in the percentage of necrotic cells	reduction in the percentage of viable cells	pore formation and content leakage in the cytoplasm	reduction in the accumulation of rhodamine	15 µg/mL and 47 µM	>13.4		
CCCCCOC(=O)/C=C/c1ccc(O)cc1 [pentyl p-coumarate]															5.16	61.6
